Results from ChEMBL document CHEMBL3407403, “Synthetic modification of hydroxychavicol by Mannich reaction and alkyne-azide cycloaddition derivatives depicting cytotoxic potential” (Eur J Med Chem, 2015).

Tests used:
Type in all cases: functional
HepG2 [1] = experiment: Growth inhibition of human HepG2 cells at 50 uM after 72 hrs by MTT assay; settings: HepG2, 72 h, read-out: GI
[2] = Growth inhibition of human MIAPaCa2 cells at 50 uM after 72 hrs by MTT assay; settings: MIA PaCa-2, 72 h, read-out: GI
[3] = Growth inhibition of human HL60 cells at 30 uM after 72 hrs by MTT assay; settings: HL-60, 72 h, read-out: GI
SK-N-SH [4] = experiment: Growth inhibition of human SK-N-SH cells at 50 uM after 72 hrs by MTT assay; settings: read-out: GI
SK-N-SH [5] = experiment: Growth inhibition of human SK-N-SH cells at 30 uM after 72 hrs by MTT assay; settings: read-out: GI
HepG2 [6] = experiment: Growth inhibition of human HepG2 cells at 30 uM after 72 hrs by MTT assay; settings: HepG2, 72 h, read-out: GI
MCF7 [7] = experiment: Growth inhibition of human MCF7 cells at 30 uM after 72 hrs by MTT assay; settings: MCF7, 72 h, read-out: GI
[8] = Growth inhibition of human MIAPaCa2 cells at 30 uM after 72 hrs by MTT assay; settings: MIA PaCa-2, 72 h, read-out: GI
MCF7 [9] = experiment: Growth inhibition of human MCF7 cells at 50 uM after 72 hrs by MTT assay; settings: MCF7, 72 h, read-out: GI
[10] = Growth inhibition of human HL60 cells at 50 uM after 72 hrs by MTT assay; settings: HL-60, 72 h, read-out: GI

**Q.** Which inhibition of growth at 50 µM (HepG2 [1]) does the source give for `C=CCc1cc(O)c(O)c(CN2CCOCC2)c1` here?
**A.** 6.5%

**Q.** What about the inhibition of growth at 50 µM [2] of the same compound?
**A.** 67.5%

**Q.** What about the inhibition of growth at 30 µM [3] of the same compound?
**A.** 89.8%

**Q.** And the inhibition of growth at 50 µM (SK-N-SH [4])?
**A.** 86.1%

**Q.** What about the inhibition of growth at 30 µM (SK-N-SH [5]) of the same compound?
**A.** 49.6%

**Q.** And the inhibition of growth at 30 µM (HepG2 [6])?
**A.** 2.1%

**Q.** And the inhibition of growth at 30 µM (MCF7 [7])?
**A.** 33.5%

**Q.** And the inhibition of growth at 30 µM [8]?
**A.** 54.4%

**Q.** And the inhibition of growth at 50 µM (MCF7 [9])?
**A.** 48.9%

**Q.** And the inhibition of growth at 50 µM [10]?
**A.** 90.5%

**Q.** Which inhibition of growth at 50 µM (HepG2 [1]) does the source give for `C#CCOc1ccc(CC=C)cc1O` here?
**A.** 5.6%

**Q.** What about the inhibition of growth at 50 µM [2] of the same compound?
**A.** 30.3%

**Q.** And the inhibition of growth at 30 µM [3]?
**A.** 30.7%

**Q.** What about the inhibition of growth at 50 µM (SK-N-SH [4]) of the same compound?
**A.** 88.4%

**Q.** And the inhibition of growth at 30 µM (SK-N-SH [5])?
**A.** 11.8%

**Q.** And the inhibition of growth at 30 µM (HepG2 [6])?
**A.** 1.5%

**Q.** And the inhibition of growth at 30 µM (MCF7 [7])?
**A.** 23.7%

**Q.** And the inhibition of growth at 30 µM [8]?
**A.** 27.4%

**Q.** And the inhibition of growth at 50 µM (MCF7 [9])?
**A.** 15.8%

**Q.** And the inhibition of growth at 50 µM [10]?
**A.** 34.2%

**Q.** With `C=CCc1ccc(OCc2cn(-c3ccc(Br)cc3)nn2)c(O)c1` as the compound, how does the inhibition of growth at 50 µM (HepG2 [1]) read?
**A.** 9.5%

**Q.** And the inhibition of growth at 50 µM [2]?
**A.** 47.3%

**Q.** What about the inhibition of growth at 30 µM [3] of the same compound?
**A.** 22.1%

**Q.** What about the inhibition of growth at 50 µM (SK-N-SH [4]) of the same compound?
**A.** 61.7%

**Q.** What about the inhibition of growth at 30 µM (SK-N-SH [5]) of the same compound?
**A.** 38.3%

**Q.** And the inhibition of growth at 30 µM (HepG2 [6])?
**A.** 8.9%

**Q.** What about the inhibition of growth at 30 µM (MCF7 [7]) of the same compound?
**A.** 19.4%

**Q.** What about the inhibition of growth at 30 µM [8] of the same compound?
**A.** 43.3%

**Q.** And the inhibition of growth at 50 µM (MCF7 [9])?
**A.** 29.1%

**Q.** What about the inhibition of growth at 50 µM [10] of the same compound?
**A.** 25.6%

**Q.** For `C=CCc1cc(O)c(O)c(CN2CCN(C)CC2)c1`, which inhibition of growth at 50 µM (HepG2 [1]) is on record?
**A.** 6.3%

**Q.** And the inhibition of growth at 50 µM [2]?
**A.** 69.5%

**Q.** And the inhibition of growth at 30 µM [3]?
**A.** 42.1%

**Q.** And the inhibition of growth at 50 µM (SK-N-SH [4])?
**A.** 30.8%

**Q.** What about the inhibition of growth at 30 µM (SK-N-SH [5]) of the same compound?
**A.** 24.7%

**Q.** And the inhibition of growth at 30 µM (HepG2 [6])?
**A.** 1.5%

**Q.** And the inhibition of growth at 30 µM (MCF7 [7])?
**A.** 22.8%

**Q.** What about the inhibition of growth at 30 µM [8] of the same compound?
**A.** 46.8%

**Q.** What about the inhibition of growth at 50 µM (MCF7 [9]) of the same compound?
**A.** 35.1%

**Q.** What about the inhibition of growth at 50 µM [10] of the same compound?
**A.** 53.4%

**Q.** Which inhibition of growth at 50 µM (HepG2 [1]) does the source give for `C=CCc1ccc(OCc2cn(-c3cccc(C#N)c3)nn2)c(O)c1` here?
**A.** 3.4%

**Q.** What about the inhibition of growth at 50 µM [2] of the same compound?
**A.** 41.6%

**Q.** And the inhibition of growth at 30 µM [3]?
**A.** 22.5%

**Q.** And the inhibition of growth at 50 µM (SK-N-SH [4])?
**A.** 78.8%

**Q.** What about the inhibition of growth at 30 µM (SK-N-SH [5]) of the same compound?
**A.** 21.2%

**Q.** And the inhibition of growth at 30 µM (HepG2 [6])?
**A.** 2.3%

**Q.** And the inhibition of growth at 30 µM (MCF7 [7])?
**A.** 31.9%

**Q.** What about the inhibition of growth at 30 µM [8] of the same compound?
**A.** 26.6%

**Q.** What about the inhibition of growth at 50 µM (MCF7 [9]) of the same compound?
**A.** 33.4%

**Q.** What about the inhibition of growth at 50 µM [10] of the same compound?
**A.** 30.9%

**Q.** With `C=CCc1ccc(OCc2cn(-c3ccc(C(=O)c4ccccc4)cc3)nn2)c(O)c1` as the compound, how does the inhibition of growth at 50 µM (HepG2 [1]) read?
**A.** 16.2%

**Q.** What about the inhibition of growth at 50 µM [2] of the same compound?
**A.** 53.7%

**Q.** And the inhibition of growth at 30 µM [3]?
**A.** 38.3%

**Q.** What about the inhibition of growth at 50 µM (SK-N-SH [4]) of the same compound?
**A.** 58.1%

**Q.** What about the inhibition of growth at 30 µM (SK-N-SH [5]) of the same compound?
**A.** 41.9%

**Q.** And the inhibition of growth at 30 µM (HepG2 [6])?
**A.** 14.8%

**Q.** And the inhibition of growth at 30 µM (MCF7 [7])?
**A.** 40.3%

**Q.** What about the inhibition of growth at 30 µM [8] of the same compound?
**A.** 40.1%

**Q.** And the inhibition of growth at 50 µM (MCF7 [9])?
**A.** 35.6%

**Q.** What about the inhibition of growth at 50 µM [10] of the same compound?
**A.** 40.5%

**Q.** Which results are given for `C=CCc1ccc(OCc2cn(-c3cc(OC)c(OC)c(OC)c3)nn2)c(O)c1`?
**A.** inhibition of growth at 50 µM (HepG2 [1]): 2.5%; inhibition of growth at 50 µM [2]: 49.8%; inhibition of growth at 30 µM [3]: 32.8%; inhibition of growth at 50 µM (SK-N-SH [4]): 55.9%; inhibition of growth at 30 µM (SK-N-SH [5]): 44.1%; inhibition of growth at 30 µM (HepG2 [6]): 1.2%; inhibition of growth at 30 µM (MCF7 [7]): 37.3%; inhibition of growth at 30 µM [8]: 41.1%; inhibition of growth at 50 µM (MCF7 [9]): 38.1%; inhibition of growth at 50 µM [10]: 41.4%

**Q.** For `C=CCc1ccc(OCc2cn(-c3ccccc3CO)nn2)c(O)c1`, which inhibition of growth at 50 µM (HepG2 [1]) is on record?
**A.** 8.5%

**Q.** What about the inhibition of growth at 50 µM [2] of the same compound?
**A.** 52.1%

**Q.** What about the inhibition of growth at 30 µM [3] of the same compound?
**A.** 31.7%

**Q.** What about the inhibition of growth at 50 µM (SK-N-SH [4]) of the same compound?
**A.** 87.1%

**Q.** And the inhibition of growth at 30 µM (SK-N-SH [5])?
**A.** 12.9%

**Q.** And the inhibition of growth at 30 µM (HepG2 [6])?
**A.** 4.2%

**Q.** And the inhibition of growth at 30 µM (MCF7 [7])?
**A.** 34.5%

**Q.** What about the inhibition of growth at 30 µM [8] of the same compound?
**A.** 39.6%

**Q.** What about the inhibition of growth at 50 µM (MCF7 [9]) of the same compound?
**A.** 40.4%

**Q.** And the inhibition of growth at 50 µM [10]?
**A.** 47.1%

**Q.** For `C=CCc1ccc(OCc2cn(-c3ccc(C#N)cc3)nn2)c(O)c1`, which inhibition of growth at 50 µM (HepG2 [1]) is on record?
**A.** 12.1%

**Q.** And the inhibition of growth at 50 µM [2]?
**A.** 45.9%

**Q.** And the inhibition of growth at 30 µM [3]?
**A.** 20.8%

**Q.** And the inhibition of growth at 50 µM (SK-N-SH [4])?
**A.** 62.5%

**Q.** And the inhibition of growth at 30 µM (SK-N-SH [5])?
**A.** 37.5%

**Q.** What about the inhibition of growth at 30 µM (HepG2 [6]) of the same compound?
**A.** 1.5%

**Q.** And the inhibition of growth at 30 µM (MCF7 [7])?
**A.** 35.7%

**Q.** What about the inhibition of growth at 30 µM [8] of the same compound?
**A.** 39.3%

**Q.** And the inhibition of growth at 50 µM (MCF7 [9])?
**A.** 35.6%

**Q.** And the inhibition of growth at 50 µM [10]?
**A.** 31.8%
